According to article PMC5812813 (Journal of the American Chemical Society, 2018):
pIC50, pKi: −log10 of the molar value. Read-outs that look alike come from different tables or passages of the source.

Key:
[1] = biological target: T1, aspartate aminotransferase (Asp-AT) (Sus scrofa, UniProt P00503); settings: cited from earlier work
[2] = tested on: alanine aminotransferase (Ala-AT); settings: cited from earlier work
[3] = biological target: T2, ornithine aminotransferase (OAT) (Homo sapiens, UniProt P04181); settings: cited from earlier work
T2 sequence (P04181 36-439 limits assumed): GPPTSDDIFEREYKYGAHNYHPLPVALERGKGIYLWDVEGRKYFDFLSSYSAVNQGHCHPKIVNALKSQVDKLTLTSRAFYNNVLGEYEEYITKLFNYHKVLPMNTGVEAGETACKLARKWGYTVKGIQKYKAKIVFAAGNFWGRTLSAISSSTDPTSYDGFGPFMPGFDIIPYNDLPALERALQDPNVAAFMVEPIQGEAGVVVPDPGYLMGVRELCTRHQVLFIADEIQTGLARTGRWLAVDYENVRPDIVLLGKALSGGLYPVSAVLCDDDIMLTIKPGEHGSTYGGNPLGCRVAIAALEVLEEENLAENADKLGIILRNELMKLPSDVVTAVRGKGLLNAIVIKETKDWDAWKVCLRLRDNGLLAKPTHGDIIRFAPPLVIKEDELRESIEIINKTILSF

[4] = biological target: T3, hERG channel (Homo sapiens, UniProt Q12809); settings: cited from earlier work
[5] = biological target: T4, CYP1A (Homo sapiens, UniProt P05177); settings: cited from earlier work
T4 sequence (P05177 1-516): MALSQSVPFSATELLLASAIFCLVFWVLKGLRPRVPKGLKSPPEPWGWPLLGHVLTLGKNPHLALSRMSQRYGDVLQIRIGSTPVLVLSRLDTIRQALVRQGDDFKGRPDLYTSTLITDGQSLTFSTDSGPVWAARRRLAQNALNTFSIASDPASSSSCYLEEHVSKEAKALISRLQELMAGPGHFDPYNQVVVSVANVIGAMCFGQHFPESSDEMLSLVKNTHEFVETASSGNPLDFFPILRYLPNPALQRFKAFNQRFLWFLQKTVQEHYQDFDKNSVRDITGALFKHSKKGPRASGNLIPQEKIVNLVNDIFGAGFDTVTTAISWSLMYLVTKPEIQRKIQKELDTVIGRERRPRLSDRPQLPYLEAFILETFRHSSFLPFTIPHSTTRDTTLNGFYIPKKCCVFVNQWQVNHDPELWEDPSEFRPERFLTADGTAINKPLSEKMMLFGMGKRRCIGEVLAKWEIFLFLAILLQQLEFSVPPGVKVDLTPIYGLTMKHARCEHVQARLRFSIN

[6] = biological target: T5, CYP2B6 (Homo sapiens, UniProt P20813); settings: cited from earlier work
T5 sequence (P20813 1-491): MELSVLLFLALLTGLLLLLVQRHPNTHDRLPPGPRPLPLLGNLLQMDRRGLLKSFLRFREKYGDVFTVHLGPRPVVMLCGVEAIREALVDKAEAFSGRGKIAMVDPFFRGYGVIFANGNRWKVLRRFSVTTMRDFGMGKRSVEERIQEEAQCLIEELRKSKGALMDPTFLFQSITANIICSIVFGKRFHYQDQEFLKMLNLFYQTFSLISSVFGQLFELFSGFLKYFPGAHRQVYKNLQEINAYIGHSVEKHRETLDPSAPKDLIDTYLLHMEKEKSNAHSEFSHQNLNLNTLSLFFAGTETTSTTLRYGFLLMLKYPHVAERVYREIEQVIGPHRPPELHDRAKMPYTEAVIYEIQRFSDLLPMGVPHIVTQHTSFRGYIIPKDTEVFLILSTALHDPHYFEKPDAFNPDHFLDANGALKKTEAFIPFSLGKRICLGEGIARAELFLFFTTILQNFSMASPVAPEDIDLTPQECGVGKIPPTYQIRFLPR

[7] = biological target: T6, CYP2C8 (Homo sapiens, UniProt P10632); settings: cited from earlier work
T6 sequence (P10632 1-490): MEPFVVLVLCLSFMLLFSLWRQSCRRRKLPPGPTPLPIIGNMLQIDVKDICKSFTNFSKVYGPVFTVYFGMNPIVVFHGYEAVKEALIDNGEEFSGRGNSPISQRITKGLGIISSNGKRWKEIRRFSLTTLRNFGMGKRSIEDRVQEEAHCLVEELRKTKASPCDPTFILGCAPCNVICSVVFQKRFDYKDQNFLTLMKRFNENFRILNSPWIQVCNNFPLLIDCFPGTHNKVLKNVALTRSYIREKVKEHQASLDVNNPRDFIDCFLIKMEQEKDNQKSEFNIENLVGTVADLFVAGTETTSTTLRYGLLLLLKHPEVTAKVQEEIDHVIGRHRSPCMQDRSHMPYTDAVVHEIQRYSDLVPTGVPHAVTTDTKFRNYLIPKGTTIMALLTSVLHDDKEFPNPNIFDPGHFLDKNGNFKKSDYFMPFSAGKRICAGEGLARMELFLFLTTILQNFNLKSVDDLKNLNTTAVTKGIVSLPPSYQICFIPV

[8] = biological target: T7, CYP2C9 (Homo sapiens, UniProt P11712); settings: cited from earlier work
[9] = biological target: T8, CYP2C19 (Homo sapiens, UniProt P33261); settings: cited from earlier work
[10] = biological target: T9, CYP2D6 (Homo sapiens, UniProt P10635); settings: cited from earlier work
[11] = tested on: CYP3A; settings: cited from earlier work
[12] = tested on: hippocampus glucose metabolism; settings: previously tested in similar tests; cited from earlier work
[13] = tested on: infantile spasms; settings: cited from earlier work
[14] = biological target: T1, aspartate aminotransferase (Asp-AT); experiment: Inhibition of aspartate aminotransferase; format: biochemical
[15] = tested on: alanine aminotransferase (Ala-AT); experiment: Inhibition of alanine aminotransferase; format: biochemical
[16] = biological target: T2, ornithine aminotransferase (OAT); experiment: Time- and concentration-dependent inhibition of ornithine aminotransferase; format: biochemical
[17] = biological target: T3, hERG channel; experiment: Inhibition of the hERG channel; format: cell-based; settings: at 10 μM
[18] = biological target: T4, CYP1A; experiment: CYP1A inhibition; format: in vitro ADME; settings: 10 μM
[19] = biological target: T5, CYP2B6; experiment: CYP2B6 inhibition; format: in vitro ADME; settings: 10 μM
[20] = biological target: T6, CYP2C8; experiment: CYP2C8 inhibition; format: in vitro ADME; settings: 10 μM
[21] = biological target: T7, CYP2C9; experiment: CYP2C9 inhibition; format: in vitro ADME; settings: 10 μM
[22] = biological target: T8, CYP2C19; experiment: CYP2C19 inhibition; format: in vitro ADME; settings: 10 μM
[23] = biological target: T9, CYP2D6; experiment: CYP2D6 inhibition; format: in vitro ADME; settings: 10 μM
[24] = tested on: CYP3A; experiment: CYP3A inhibition; format: in vitro ADME, human; settings: 10 μM
[25] = Metabolic stability in human liver microsomes; format: in vitro ADME; settings: 1 μM, 90 min assay time, 37 °, LC-MS/MS
[26] = tested on: 176 pharmacological targets; experiment: Cerep SpectrumScreen; settings: 3 μM
[27] = Ames test for mutagenicity
[28] = Irwin; design: species or system mice; settings: mouse, in vivo, po
[29] = tested on: cocaine- or nicotine-induced increases in synaptic dopamine (corpus striatum); format: in vivo, rat
[30] = tested on: hippocampus glucose metabolism; experiment: microPET 18FDG, cocaine-induced increases in glucose metabolism; format: in vivo, rat; settings: 5 before cocaine, statistical parametric mapping, p < 0.00001
[31] = tested on: cocaine addiction; settings: 9-week double-blind trial; cited from earlier work
[32] = after long-term administration; cited from earlier work
[33] = 5 0.1 mg/kg prior to cocaine 10 mg/kg
[34] = 5 1.0 mg/kg prior to cocaine 10 mg/kg

T1 sequence (P00503 2-413): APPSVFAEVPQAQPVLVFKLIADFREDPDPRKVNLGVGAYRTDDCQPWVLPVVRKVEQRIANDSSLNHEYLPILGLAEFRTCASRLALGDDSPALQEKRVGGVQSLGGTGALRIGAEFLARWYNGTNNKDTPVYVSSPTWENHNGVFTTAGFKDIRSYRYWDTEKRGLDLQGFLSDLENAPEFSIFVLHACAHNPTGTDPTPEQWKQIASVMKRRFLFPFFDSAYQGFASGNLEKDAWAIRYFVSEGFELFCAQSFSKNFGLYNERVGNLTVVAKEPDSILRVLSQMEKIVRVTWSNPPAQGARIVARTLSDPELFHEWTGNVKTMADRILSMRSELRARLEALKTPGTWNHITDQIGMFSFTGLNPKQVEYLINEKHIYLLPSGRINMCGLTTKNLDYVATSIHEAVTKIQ
T3 sequence (Q12809 whole entry): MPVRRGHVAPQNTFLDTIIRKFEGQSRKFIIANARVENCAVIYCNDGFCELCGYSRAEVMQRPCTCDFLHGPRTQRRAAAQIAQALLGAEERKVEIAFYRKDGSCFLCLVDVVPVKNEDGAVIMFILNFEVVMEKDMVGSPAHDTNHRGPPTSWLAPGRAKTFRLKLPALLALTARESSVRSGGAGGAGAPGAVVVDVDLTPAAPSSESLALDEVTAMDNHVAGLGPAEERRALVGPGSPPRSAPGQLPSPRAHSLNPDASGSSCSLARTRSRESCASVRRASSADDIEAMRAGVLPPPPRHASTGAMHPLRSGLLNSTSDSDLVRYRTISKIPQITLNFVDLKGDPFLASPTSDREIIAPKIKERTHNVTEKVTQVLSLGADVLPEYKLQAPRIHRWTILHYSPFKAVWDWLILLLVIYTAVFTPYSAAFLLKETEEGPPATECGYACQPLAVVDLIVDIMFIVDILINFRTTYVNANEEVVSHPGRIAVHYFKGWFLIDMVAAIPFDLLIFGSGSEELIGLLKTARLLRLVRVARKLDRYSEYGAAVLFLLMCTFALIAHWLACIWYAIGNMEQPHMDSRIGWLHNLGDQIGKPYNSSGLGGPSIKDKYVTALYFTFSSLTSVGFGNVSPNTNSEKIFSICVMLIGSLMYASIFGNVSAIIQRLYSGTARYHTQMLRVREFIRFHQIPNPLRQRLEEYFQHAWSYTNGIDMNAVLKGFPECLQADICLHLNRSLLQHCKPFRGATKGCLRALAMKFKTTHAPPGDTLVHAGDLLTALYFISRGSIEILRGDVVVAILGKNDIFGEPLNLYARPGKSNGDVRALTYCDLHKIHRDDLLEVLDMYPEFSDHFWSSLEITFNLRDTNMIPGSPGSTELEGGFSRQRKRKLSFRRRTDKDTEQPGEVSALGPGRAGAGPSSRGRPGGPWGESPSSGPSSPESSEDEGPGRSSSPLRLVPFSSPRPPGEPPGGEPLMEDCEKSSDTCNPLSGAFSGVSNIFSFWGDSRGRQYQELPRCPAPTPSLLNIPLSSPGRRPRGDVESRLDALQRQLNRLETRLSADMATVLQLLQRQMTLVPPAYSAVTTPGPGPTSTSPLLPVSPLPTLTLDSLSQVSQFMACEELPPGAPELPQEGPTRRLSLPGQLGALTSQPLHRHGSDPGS
T9 sequence (P10635 whole entry): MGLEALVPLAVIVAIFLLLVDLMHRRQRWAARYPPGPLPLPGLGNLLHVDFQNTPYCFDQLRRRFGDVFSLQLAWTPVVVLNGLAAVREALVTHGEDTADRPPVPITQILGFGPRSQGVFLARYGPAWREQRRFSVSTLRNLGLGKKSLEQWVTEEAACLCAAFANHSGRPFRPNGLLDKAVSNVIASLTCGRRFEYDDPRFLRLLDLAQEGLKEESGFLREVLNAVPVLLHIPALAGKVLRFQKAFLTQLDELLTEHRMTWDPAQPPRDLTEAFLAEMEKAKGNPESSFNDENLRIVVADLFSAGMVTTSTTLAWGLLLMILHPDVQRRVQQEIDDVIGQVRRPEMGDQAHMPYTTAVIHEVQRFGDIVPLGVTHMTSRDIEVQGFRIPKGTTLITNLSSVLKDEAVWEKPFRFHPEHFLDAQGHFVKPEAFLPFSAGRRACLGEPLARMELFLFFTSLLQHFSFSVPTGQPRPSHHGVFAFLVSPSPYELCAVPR
T8 sequence (P33261 whole entry): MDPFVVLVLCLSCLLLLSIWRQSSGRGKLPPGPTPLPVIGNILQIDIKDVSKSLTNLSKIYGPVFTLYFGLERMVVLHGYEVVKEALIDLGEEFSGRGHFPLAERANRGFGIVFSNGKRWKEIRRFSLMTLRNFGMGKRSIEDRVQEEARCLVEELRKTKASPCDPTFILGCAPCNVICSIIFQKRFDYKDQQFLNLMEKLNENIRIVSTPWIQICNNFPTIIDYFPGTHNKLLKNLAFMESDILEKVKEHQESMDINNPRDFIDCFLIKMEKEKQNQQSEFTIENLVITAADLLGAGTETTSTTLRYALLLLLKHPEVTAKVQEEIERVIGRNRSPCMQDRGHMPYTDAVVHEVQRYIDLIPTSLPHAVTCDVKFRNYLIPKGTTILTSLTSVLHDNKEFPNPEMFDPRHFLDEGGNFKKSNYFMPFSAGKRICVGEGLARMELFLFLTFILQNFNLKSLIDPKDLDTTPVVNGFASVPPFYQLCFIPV
T7 sequence (P11712 whole entry): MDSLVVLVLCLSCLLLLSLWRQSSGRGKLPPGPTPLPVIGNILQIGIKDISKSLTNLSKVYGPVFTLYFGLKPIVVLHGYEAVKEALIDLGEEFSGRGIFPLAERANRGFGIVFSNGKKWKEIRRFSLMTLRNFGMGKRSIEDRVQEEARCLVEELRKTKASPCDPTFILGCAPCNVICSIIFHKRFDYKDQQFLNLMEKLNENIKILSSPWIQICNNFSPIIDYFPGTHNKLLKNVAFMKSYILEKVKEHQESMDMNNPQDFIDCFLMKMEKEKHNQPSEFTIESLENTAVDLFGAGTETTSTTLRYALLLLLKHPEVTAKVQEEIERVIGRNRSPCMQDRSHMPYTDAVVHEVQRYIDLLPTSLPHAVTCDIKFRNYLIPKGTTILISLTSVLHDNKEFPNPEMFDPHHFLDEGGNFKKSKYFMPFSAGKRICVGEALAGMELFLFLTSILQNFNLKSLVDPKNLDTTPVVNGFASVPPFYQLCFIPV

N[C@H]1C[C@@H](C(=O)O)CC1=C(F)F [CPP-115, (1S,3S)-3-amino-4-difluoromethylenyl-1-cyclopentanoic acid]
inactivation or inhibition of off-target enzyme [1]: not to inactivate or inhibit | inactivation or inhibition of off-target enzyme [2]: not to inactivate or inhibit | pKi [3]: 3.94 | inhibition of the activity of the hERG channel [4]: does not inhibit | CYP inhibition or induction [5]: does not inhibit or induce | CYP inhibition or induction [6]: does not inhibit or induce | CYP inhibition or induction [7]: does not inhibit or induce | CYP inhibition or induction [8]: does not inhibit or induce | CYP inhibition or induction [9]: does not inhibit or induce | CYP inhibition or induction [10]: does not inhibit or induce | CYP inhibition or induction [11]: does not inhibit or induce | block of cocaine-induced hippocampal metabolism [12]: did not completely block | doses suppressing spasms, lower than those used for vigabatrin [13]: over 100 fold

N[C@H]1C=C(C(=O)O)CC1=C(F)F [Compound 5, (S)-3-amino-4-(difluoromethylenyl)cyclopent-1-ene-1-carboxylic acid]
time-dependent inhibition [14]: does not cause time-dependent inhibition | time-dependent inhibition [15]: does not cause time-dependent inhibition | pIC50 ([15]; reversible inhibition): < 2.40 | more effective at inhibiting GABA-AT than OAT ([16]; GABA-AT versus OAT): 44 times | efficiency as an inactivator of OAT relative to CPP-115 ([16]; ratio of kinact/KI): 9.0 times | inhibition of the activity of the hERG channel [17]: does not inhibit | CYP inhibition or induction [18]: does not inhibit or induce | CYP inhibition or induction [19]: does not inhibit or induce | CYP inhibition or induction [20]: does not inhibit or induce | CYP inhibition or induction [21]: does not inhibit or induce | CYP inhibition or induction [22]: does not inhibit or induce | CYP inhibition or induction [23]: does not inhibit or induce | CYP inhibition or induction [24]: does not inhibit or induce | metabolism in human liver microsomes [25]: No metabolism | activity at 176 pharmacological targets [26]: no significant activity | Ames test for mutagenicity [27]: negative | NOAEL [28]: 6 mg/kg | reduction of [11C]-raclopride binding ([29]; 5 0.01 mg/kg 30 minutes prior to cocaine): 20% | ST-CB/CB ([29]; 5 0.01 mg/kg 30 minutes prior to cocaine 10 mg/kg): 3.01 ± 0.44 | %= (Percent inhibition of cocaine-induced increase in synaptic dopamine) ([29]; 5 0.01 mg/kg prior to cocaine 10 mg/kg): −20% | reduction of [11C]-raclopride binding ([29]; 5 0.1 mg/kg prior to cocaine): 12% | %= (Percent inhibition of cocaine-induced increase in synaptic dopamine) [29, 33]: −12% | ST-CB/CB [29, 33]: 3.31 ± 0.52 | change in [11C]-raclopride binding ([29]; 5 1.0 mg/kg prior to cocaine): no significant change | %= (Percent inhibition of cocaine-induced increase in synaptic dopamine) [29, 34]: −5% | ST-CB/CB [29, 34]: 3.56 ± 2.11 | reduction of [11C]-raclopride binding ([29]; 5 1.0 mg/kg prior to cocaine (comparable to control)): 5% | change in [11C]-raclopride binding ([29]; 5 1.0 mg/kg prior to nicotine): no significant change | cocaine-induced activation in the hippocampus (18FDG uptake) [30]: no activation in the hippocampus was detected

COC(=O)[C@H]1[C@@H](OC(=O)c2ccccc2)C[C@@H]2CC[C@H]1N2C [Cocaine, cocaine, reference compound]
%= (Percent inhibition of cocaine-induced increase in synaptic dopamine) ([29]; cocaine 10 mg/kg alone): −36% | ST-CB/CB ([29]; cocaine 10 mg/kg alone): 2.39 ± 0.21 | reduction of [11C]-raclopride binding ([29]; cocaine 10 mg/kg alone): 36%

C=CC(N)CCC(=O)O (stereo not drawn) [vigabatrin]
block of cocaine-induced hippocampal metabolism [12]: did not completely block | patients achieving abstinence [31]: up to 28% | patients with permanent retinal damage [32]: 25–40%
